Assays:
Assay type in all cases: in vivo, rat
Male Sprague-Dawley rats [1] = test: Porsolt swim test (forced swim stress test)
Excerpt: Laboratory Animals: The use of animals for this study was approved by the University Committee on Animal Care at East Tennessee State University. All rats were ordered from Envigo, Inc. (Indianapolis, Ind., USA). Male Sprague-Dawley rats (225-250 g upon arrival) were used as subjects in the Porsolt swim test and were socially housed in groups of 2-3 per cage. Rats used as ‘intruders’ in the social defeat paradigm were individually housed and provided enrichment per the NIH Guidelines for the Care and Use of Animals. Intruder rats were male Sprague-Dawley rats (225-250 g). In addition, a total of 14 female Sprague-Dawley rats weighing 175-199 g upon arrival were obtained for the social defeat paradigm and these rats were socially housed for 6 days in the animal colony prior to fallopian tube ligature, performed as previously described. (Szebeni et al., 2016). Sixteen male Long-Evans hooded rats weighing 250-275 g upon arrival were used as ‘residents’ in the social defeat paradigm. A climate-controlled vivarium was utilized and animals were kept on a 12 h on/12 off light/dark cycle. Porsolt swim test: Different groups of animals were tested in the Porsolt swim test. Rats were treated using the same drug treatment regimen as with the SDS/CUS paradigm, except as noted in the combined drug treatments as noted in the Results. On the eighth day of drug treatment, all animals began behavioral testing in the Porsolt swim test, also known as the forced swim stress test. All animals were tested in black cylinders measuring 36 cm in diameter, and these cylinders were filled with water of 23-25° C. following procedures as reviewed previously (Bogdanova et al., 2013), consistent with the original procedure of Porsolt and coworkers (Porsolt et al., 1978). All animals were given a pre-swim exposure test on the first day of testing, 24 h before the swim test session the following day. On the first day of testing, animals were exposed to the water for 15 min, and on the second day were given a 5 min trial. The two dependent measures used for forced swim stress was the latency to first immobility episode (immobility lasting >5 s) and the total immobility time over the 5 min period, both recorded on the second day of testing. All movements of the animal were recorded by behavioral scanning software (ANY-maze, Stoelting Co., Wood Dale, Ill., USA). Drug administration: All drugs used in the study, 3-aminobenzamide (Product no. A0788; 3-AB), 5-AIQ hydrochloride (Product no. […] F132), were obtained from Sigma-Aldrich, Inc. (St. Louis, Mo., USA). Statistical analysis: A Grubb's test was used to remove statistical outliers from each dataset prior to analyses. Statistical analyses were otherwise performed as indicated using IBM SPSS Statistics (version 23.0) and data were graphed using GraphPad Prism (version 5.0b, GraphPad Software, La Jolla, Calif.). An independent sample t-test was used to analyze data generated when only two groups were analyzed. An analysis of variance (ANOVA) was used to test multiple group comparisons. For post hoc statistical comparisons, a Bonferroni-correction was applied (as noted) to limit Type I error in multiple post-hoc comparisons. For the combined drug treatment experiment, ANOVA was followed by a Dunnett's Multiple Comparison test that focused comparisons of drug treatment groups to the vehicle control group. All data are expressed as mean±standard error of the mean.

Male Sprague-Dawley rats [2] = test: Sucrose preference in rats exposed to repeated social defeat stress plus chronic unpredictable stress; conditions: 2 h prior to social defeat, vs stressed rats treated with vehicle
Procedure: (§1) Social Defeat Stress (SDS): SDS was induced as described previously (Covington and Miczek, 2001; Szebeni et al., 2016). Briefly, Long-Evans hooded rats (‘residents’) were each mated with a female (ligated) rat for a 7-day period. On the eighth day and after removal of the female, an ‘intruder’ rat was placed into the cage for a 5 min period and dominance was established by the resident. Defeat was produced between 0900 and 1000 h daily for 10 consecutive days. Control rats not exposed to defeat were handled each day during this same time period.
(§2) Chronic unpredictable stress (CUS): CUS was performed after SDS on the same day, but at random times either during the day or evening as previously described (Bondi et al., 2008; Szebeni et al., 2016). Different stressors were randomly arranged and occurred at random times during the light or dark cycle of each day for 10 consecutive days. […]
Sucrose Preference: Sucrose preference was performed during the final three days of induction of social defeat stress (days 8-10), using a procedure based on that of D'Aquila et al. (1997). […] Amounts of sucrose consumed were calculated as percentages of the total amount of fluid consumed during the 2 h period on each of the 3 days of testing. […] The preference of sucrose over water was used as a measure of animal's sensitivity to reward and expressed as a percent. […]

Male Sprague-Dawley rats [3] = test: Social interaction test in rats exposed to repeated social defeat stress plus chronic unpredictable stress
Procedure: as §1
as §2, with “days. All rats were exposed twice to each of 5 different stressors, which included a 30-min restraint, a 1-h shaking/crowding, 10-min cold water (18° C.) swim, a 15-min warm water swim (25° C.) and a 24-h tipped cage.” for “days.”
Social interaction test: The social interaction test was performed 24 h after the last social defeat stress on day 11 of behavioral testing. […] The amount of time spent in a defined interaction zone close to the metal divider was measured using ANYmaze video tracking (Stoelting Co., Wood Dale Ill., USA). […]

[4] = third experiment, 4 mg/kg i.p. 3 times over 24 h, alone, Dunnett's test vs vehicle
[5] = third experiment, 2.5 mg/kg i.p. 3 times over 24 h, alone, Dunnett's test vs vehicle

SMILES: NC(=O)c1cccc(N)c1 [3-AB, 3-aminobenzamide]
- time spent immobile (Male Sprague-Dawley rats [1]; preliminary experiment, 40 mg/kg i.p. daily for 10 days, 2 h after injection, vs saline-treated controls, t=2.36, p<0.05): significantly decreased
- latency to immobility (Male Sprague-Dawley rats [1]; preliminary experiment, 40 mg/kg i.p. daily for 10 days, 2 h after injection, vs saline-treated controls, t=5.56, p<0.001): significant increase
- latency to immobility (Male Sprague-Dawley rats [1]; second experiment, 0.4 mg/kg i.p. once daily for 10 days, vs vehicle control group): did not significantly differ
- latency to immobility (Male Sprague-Dawley rats [1]; second experiment, 4 mg/kg i.p. once daily for 10 days, vs vehicle control group): did not significantly differ
- latency to immobility (Male Sprague-Dawley rats [1]; second experiment, 40 mg/kg i.p. injections 23.5, 5 and 1 h before testing (3-AB×3), vs vehicle control group): did not significantly differ
- immobility time (Male Sprague-Dawley rats [1]; second experiment, 40 mg/kg i.p. injections 23.5, 5 and 1 h before testing (3-AB×3), vs vehicle group): significantly less time immobile
- immobility time (Male Sprague-Dawley rats [1]; second experiment, 40 mg/kg i.p. once daily for 10 days, vs vehicle group): significantly less time immobile
- latency to immobility (Male Sprague-Dawley rats [1]; second experiment, 40 mg/kg i.p. once daily for 10 days, vs vehicle-treated control rats): significantly greater
- immobility time (Male Sprague-Dawley rats [1]; [4]): did not significantly affect
- latency to immobility (Male Sprague-Dawley rats [1]; [4]): did not significantly affect
- sucrose preference (Male Sprague-Dawley rats [2]; 40 mg/kg i.p. daily for 10 days, p=0.024): significantly higher
- time spent in the interaction zone (Male Sprague-Dawley rats [3]; 40 mg/kg i.p. daily for 10 days, vs vehicle-treated rats exposed to stressors, p=0.014): significantly greater

SMILES: CNCCC(Oc1ccc(C(F)(F)F)cc1)c1ccccc1 (centres unmarked) [fluoxetine]
- immobility time (Male Sprague-Dawley rats [1]; second experiment, 10 mg/kg i.p. injections 23.5, 5 and 1 h before testing, vs vehicle group): significantly less time immobile
- latency to immobility (Male Sprague-Dawley rats [1]; second experiment, 10 mg/kg i.p. injections 23.5, 5 and 1 h before testing, vs vehicle-treated control rats): significantly greater
- immobility time (Male Sprague-Dawley rats [1]; [5]): did not significantly affect
- latency to immobility (Male Sprague-Dawley rats [1]; [5]): did not significantly affect
- sucrose preference (Male Sprague-Dawley rats [2]; 10 mg/kg i.p. daily for 10 days, p=0.005): significantly higher
- time spent in the interaction zone (Male Sprague-Dawley rats [3]; 10 mg/kg i.p. daily for 10 days, difference vs vehicle-treated rats exposed to stress, appeared greater, p=0.073): did not reach statistical significance

SMILES: Nc1cccc2c(=O)[nH]ccc12 [5-AIQ, 5-aminoisoquinolinone]
- latency to immobility (Male Sprague-Dawley rats [1]; second experiment, 0.3 mg/kg i.p. once daily for 10 days, vs vehicle control group): did not significantly differ
- immobility time (Male Sprague-Dawley rats [1]; second experiment, 0.3 mg/kg i.p. once daily for 10 days, vs vehicle group): significantly less time immobile

Reference: patent US20180042919A1, “PARP Inhibitors for the Treatment of Major Depressive Disorder and Related Conditions” (East Tennessee State University Research Foundation, priority 2016, published 2018)
